From patent US10213415B2, “Compounds as opioid receptor modulators” (JANSSEN PHARMACEUTICA NV, priority 2004, dated 2019)
Read-outs that look alike come from different tables or passages of the source.

Legend:
male CD-1 mice [1] = assay: In Vivo Assay: Upper GI Tract Transit (MUGIT); details: Mus musculus, po, 1 h, p.o., read-out: upper GI transit (% ctrl)
Method: Methods: The animals used in these studies were male CD-1 mice, ave. wt. ˜30 g. Mice were housed under 12 h/12 h light/dark cycle, food & water ad lib. On the day of the experiment mice were assigned to experimental groups, including one vehicle-only group (=control). At 30 min before administration of carmine dye, animals were dosed with vehicle or vehicle-plus-compound, mice were returned to their home cages after drug administration. After administration of carmine, the animals were either returned to their home cages (non-stressed) or individually placed in the same metal cages as used in the fecal output or entire GI tract transit to induce a novel environment stress. One hour after administration of carmine, mice were sacrificed by cervical dislocation, the abdomen opened midventrally, the small intestine from pylorus to cecum was removed, the mesentery divided in order to lay the intestine straight & flat—without stretching. The total length of intestine and the length of carmine-dyed intestine were measured in order to determine the percent of the upper GI tract over which transit had occurred as follows: {(Length of carmine-dyed intestine)/(Total length of intestine)}×100=% upper GI transit. The data expressed were group means±SD (or s.e.m.) and data expressed as % of control.

male CD-1 mice [2] = assay: In Vivo Assay: Stress-Induced Entire GI Tract Transit (MEGIT, MEGIT-NES, MEGIT-RS); set-up: species or system mouse; details: for MEGIT entire GI transit 6 hr % ctrl: acclimated mice; for MEGIT-RS entire GI transit 5 hr (% RS): dose 20 p.o., restraint stress
Method: Methods: The animals used in these studies are male CD-1 mice, ave. wt. ˜30 g. Procedure: Mice were housed in LAM under 12 h/12 h light/dark cycle, food & water ad lib. On the day before the experiments, the mice assigned to the “acclimated” (non-stressed) control group were placed into individual wire mesh-bottomed cages, provided food and water ad lib. The acclimated control group was in this new environment for 16-18 hrs prior to beginning the test. On the day of the experiment, mice assigned to experimental groups were housed in home cages were transported to procedure room and remain in their home cages until the start of the transit portion of the study. […] After the carmine marker was administered each mouse was placed in the novel environment cage. One hour after administration of carmine, the fecal pellet output of each animal was recorded. At one-hour intervals thereafter the fecal pellets were examined for the presence of carmine-dye. The number of mice that excreted a carmine-containing fecal pellet at the end of each hour post carmine administration was recorded, until all mice had excreted carmine in a fecal pellet or the end of 6 hrs post carmine administration, whichever occurred first. A variant of this novel environment stress (NES) paradigm is to use the same procedures of dye and compound administrations, but to use restraint (confinement in a small plastic tube for 3 hr) as a stressor (RS=restraint stress), followed by two hours in an individual cage (total of 5 hr fecal transit time). […] The mouse entire GI tract (MEGIT) transit test can thus be done in mice that are all acclimated (non-stressed), in which case the data are expressed as % control (vehicle only), or in mice that are exposed to NES or RS, in which cases the data are expressed as % of the vehicle treated NES or RS group.

[3] = system: novel environment-stressed mice; assay: In Vivo Assay-Stress-Induced Fecal Output (Fecal Output for 1 hr); set-up: species or system mouse; details: for response vs control in vivo at 30 mg/kg: Mus musculus, po, 1 h
Method in brief: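 Adult male Crl:CD-1(ICR) mice (˜30-35 g; at least 10 per dose group) were split into acclimated non-stressed controls, held individually for 16-18 hr in wire-mesh-bottom cages, and non-acclimated stressed groups. Mice were dosed intragastrically with vehicle or test compound in 0.5% methylcellulose, housed individually in novel cages over absorbent cardboard, and fecal pellets per mouse were counted hourly.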

[4] = biological target: T1, human delta subtype 2 opioid receptor (Homo sapiens, UniProt P41143); assay: Human Delta Opioid Receptor Binding Assay (CHO membranes, 3H-Naltrindole); details: read-out: hKi δ
T1 construct: purchased Perkin Elmer RBHODM400UA; host or cells: Chinese Hamster Ovary cells (recombinant expression)
Method in brief: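 Filtration binding on CHO-cell membranes expressing the human receptor, in 50 mM Tris pH 7.5 with 5 mM MgCl2, 30 min at room temperature; 3H-naltrindole diluted to 6 nM before mixing 1:1 with compound. Nonspecific binding defined with 1 μM unlabelled naltrindole; inhibition relative to no-inhibitor wells.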

T1 sequence (P41143 whole entry): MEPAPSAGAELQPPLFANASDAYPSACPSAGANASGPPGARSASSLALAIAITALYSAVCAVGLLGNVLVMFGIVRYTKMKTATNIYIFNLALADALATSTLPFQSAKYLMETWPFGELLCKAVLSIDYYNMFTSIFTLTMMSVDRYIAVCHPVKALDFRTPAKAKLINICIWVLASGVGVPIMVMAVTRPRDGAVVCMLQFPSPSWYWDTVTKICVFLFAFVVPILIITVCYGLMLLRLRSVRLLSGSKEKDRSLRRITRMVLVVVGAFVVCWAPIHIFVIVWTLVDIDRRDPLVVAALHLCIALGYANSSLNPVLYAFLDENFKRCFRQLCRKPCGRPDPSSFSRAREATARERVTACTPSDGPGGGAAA

## COc1ccc(CN(C(=O)[C@@H](N)Cc2c(C)cc(C(N)=O)cc2C)[C@@H](C)c2nc(-c3ccccc3)c[nH]2)cc1C(=O)O [Cpd 18]
Male CD-1 mice [1]; dose 5 (mg)
  response vs control in vivo at 5 mg: 94.2%
Male CD-1 mice [1]; dose 10 (mg)
  response vs control in vivo at 10 mg: 99.6%
Male CD-1 mice [1]; dose 25 (mg)
  response vs control in vivo at 25 mg: 83%
Male CD-1 mice [1]
  response vs control in vivo at 30 mg: 37.5%
  response vs control in vivo at 100 mg: 41.2%
Male CD-1 mice [1]; dose 50 (mg)
  response vs control in vivo at 50 mg: 69.9%
Male CD-1 mice [2]; dose 30 p.o., novel environment stress
  MEGIT-NES Entire GI transit 6 hr (% NES): 80 % NES
[3]; 30 mg/kg oral, novel environment-stressed mice, 1 hr
  Fecal Output (# pellets) cpd: 3.1 pellets
[3]; 30 mg/kg oral, relative to acclimated control, 1 hr, read-out: Fecal Output cpd % control
  response vs control in vivo at 30 mg/kg: 138%
[3]; 30 mg/kg oral, relative to novel environment stress (NES) vehicle group, 1 hr, read-out: Fecal Output cpd % NES
  response vs control in vivo at 30 mg/kg: 82.7%

## COc1ccc(CN(C(=O)[C@@H](N)Cc2c(C)cc(C(N)=O)cc2C)[C@@H](C)c2nc(-c3ccccc3)c[nH]2)cc1OC [Cpd 75]
[4]
  Ki: 8.5 nM
Male CD-1 mice [1]
  response vs control in vivo at 30 mg: 71.1%
  response vs control in vivo at 100 mg: 45.6%
Male CD-1 mice [1]; dose 60 (mg)
  response vs control in vivo at 60 mg: 56%
Male CD-1 mice [2]; dose 30 p.o.
  MEGIT entire GI transit 6 hr % ctrl: 125 % ctrl
Male CD-1 mice [2]; dose 60 p.o.
  MEGIT entire GI transit 6 hr % ctrl: 0 % ctrl
Male CD-1 mice [2]; dose 100 p.o.
  MEGIT entire GI transit 6 hr % ctrl: 0 % ctrl
[3]; dose 3.0, oral, NES mice, vs acclimated control
  Fecal pellet output, Compound (% control) 3.0: 223.8 % control
[3]; dose 10.0, oral, NES mice, vs acclimated control
  Fecal pellet output, Compound (% control) 10.0: 188.1 % control
[3]; dose 30.0, oral, NES mice, vs acclimated control
  Fecal pellet output, Compound (% control) 30.0: 100 % control

## COc1ccc(CN(C(=O)[C@@H](N)Cc2ccc(O)cc2)[C@@H](C)c2nc(-c3ccccc3)c[nH]2)cc1C(=O)O [Cpd 261]
Male CD-1 mice [1]
  response vs control in vivo at 30 mg: 87.7%
Male CD-1 mice [2]
  MEGIT-RS entire GI transit 5 hr (% RS): 103.6 % RS

## COc1ccc(CN(C(=O)[C@@H](N)Cc2c(C)cc(C(N)=O)cc2C)[C@@H](C)c2nc(-c3ccc(I)cc3)c[nH]2)cc1C(=O)O [Cpd 289]
Male CD-1 mice [1]
  response vs control in vivo at 30 mg: 76.4%
Male CD-1 mice [2]
  MEGIT-RS entire GI transit 5 hr (% RS): 14.1 % RS
